The text below walks through data of patent US8173699B2, “Compounds for the treatment of inflammatory diseases” (Boehringer Ingelheim International GmbH, priority 2005, dated 2012).

SMILES strings stand for the structures. Where a name gives a salt, the structure may show the parent alone.

As for `CN(C)C(=O)CN(c1cccc(N/C(=C2\C(=O)Oc3ccccc32)c2ccc(CN)c(F)c2)c1)S(C)(=O)=O` (as salt: HCl) [Example 101], the melting point (usually the temperature of the solid-liquid transition) fell in the range of 253 to 254 °C.
Next, `Cc1nc(-c2ccc(N/C(=C3\C(=O)Oc4ccccc43)c3ccc(CN)c(F)c3)cc2)cs1` [Example 102]: 196 to 197 °C; `CN1C(=O)/C(=C(\Nc2ccc(-c3cn(C)cn3)cc2)c2ccc(CN)cc2)c2ccccc21` [Example 36, 3-{(4-aminomethylphenyl)-[4-(1-methyl-1H-imidazol-4-yl)phenylamino]methylene}-1-methyl-1,3-dihydroindol-2-one]: 214 to 217 °C.
